Experimental data: publication PMC7101422, “N-Phenethyl Substitution in 14-Methoxy-N-methylmorphinan-6-ones Turns Selective µ Opioid Receptor Ligands into Dual µ/δ Opioid Receptor Agonists” (Scientific Reports, 2020)
Where two headings read alike, the source gives them in different places. Marks after values point to notes of the source that are not given here.

How the values were obtained:
human µOR [1] = target: T1, human µOR (Homo sapiens, UniProt P35372); assay: biochemical; format: binding
T1 construct: host or cells: CHO cells (CHO-hµOR; CHO-hµOR-p22F for the cAMP assay)
T1 sequence (P35372 whole entry): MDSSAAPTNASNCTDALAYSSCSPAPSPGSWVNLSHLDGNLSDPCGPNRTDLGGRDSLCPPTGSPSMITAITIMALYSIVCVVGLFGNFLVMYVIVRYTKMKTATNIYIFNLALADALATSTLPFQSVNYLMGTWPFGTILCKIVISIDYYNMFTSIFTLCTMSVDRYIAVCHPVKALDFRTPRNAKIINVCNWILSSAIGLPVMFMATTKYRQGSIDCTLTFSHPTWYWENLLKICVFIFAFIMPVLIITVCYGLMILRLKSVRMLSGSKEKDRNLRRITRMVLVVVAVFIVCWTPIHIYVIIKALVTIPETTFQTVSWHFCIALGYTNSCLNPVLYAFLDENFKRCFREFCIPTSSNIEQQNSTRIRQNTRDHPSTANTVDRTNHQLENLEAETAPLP

human µOR [2] = target: T1, human µOR; assay: cell-based; format: cell-based; settings: for Emax: read-out: µOR % stim.
human δOR [3] = target: T2, human δOR (Homo sapiens, UniProt P41143); assay: Forskolin-induced cAMP accumulation assay, CHO-hδOR-p22F cells; format: cell-based; settings: for Emax: read-out: δOR % stim.
T2 construct: host or cells: CHO cells (CHO-hδOR; CHO-hδOR-p22F for the cAMP assay)
T2 sequence (P41143 whole entry): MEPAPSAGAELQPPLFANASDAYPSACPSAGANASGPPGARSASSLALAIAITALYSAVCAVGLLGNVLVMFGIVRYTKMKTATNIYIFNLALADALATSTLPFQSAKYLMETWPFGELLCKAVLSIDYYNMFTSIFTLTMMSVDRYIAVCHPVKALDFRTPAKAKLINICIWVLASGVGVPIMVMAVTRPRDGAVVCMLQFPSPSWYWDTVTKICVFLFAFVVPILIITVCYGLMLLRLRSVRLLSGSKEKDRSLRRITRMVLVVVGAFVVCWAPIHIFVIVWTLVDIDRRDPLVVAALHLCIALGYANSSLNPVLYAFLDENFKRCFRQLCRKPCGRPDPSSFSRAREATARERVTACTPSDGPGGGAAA

human µOR [4] = target: T1, human µOR; assay: [35S]GTPγS binding assay, CHO-hµOR membranes; format: biochemical; settings: for µOR % stim.: [35S]GTPγS binding, relative to DAMGO
mice [5] = assay: Radiant heat tail-flick test in mice; format: in vivo; settings: Mus musculus, sc, 0.5 h, s.c., at 30 min (peak effect), n = 5–6 mice per group, read-out: ED50 (95% CL)
human δOR [6] = target: T2, human δOR; assay: Competition binding assay, CHO-hδOR cell membranes ([3H]Diprenorphine)
human δOR [7] = target: T2, human δOR; assay: [35S]GTPγS binding assay, CHO-hδOR membranes; format: biochemical; settings: for δOR % stim. / fold higher δOR agonist potency vs. N-methyl counterpart: [35S]GTPγS binding; for δOR % stim.: relative to DPDPE; for fold higher δOR agonist potency vs. N-methyl counterpart: vs. 14-OMO (3) and 14-MM (4)
human κOR [8] = target: T3, human κOR (Homo sapiens, UniProt P41145); assay: [35S]GTPγS binding assay, CHO-hκOR membranes; format: biochemical; settings: for κOR % stim.: [35S]GTPγS binding, relative to U69,593
T3 construct: host or cells: CHO cells (CHO-hκOR)
T3 sequence (P41145 whole entry): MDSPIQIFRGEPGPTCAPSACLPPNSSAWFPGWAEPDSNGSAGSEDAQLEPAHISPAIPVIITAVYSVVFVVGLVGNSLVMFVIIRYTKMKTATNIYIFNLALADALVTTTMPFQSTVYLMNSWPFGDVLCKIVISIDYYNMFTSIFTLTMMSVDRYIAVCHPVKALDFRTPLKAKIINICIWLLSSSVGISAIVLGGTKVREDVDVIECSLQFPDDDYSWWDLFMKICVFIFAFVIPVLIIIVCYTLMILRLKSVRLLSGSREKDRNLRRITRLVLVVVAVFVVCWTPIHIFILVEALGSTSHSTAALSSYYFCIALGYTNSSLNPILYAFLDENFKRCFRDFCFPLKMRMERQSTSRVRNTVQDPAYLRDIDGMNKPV

human κOR [9] = target: T3, human κOR; assay: biochemical; format: binding
human δOR [10] = target: T2, human δOR; settings: [35S]GTPγS binding; relative to DPDPE; cited from earlier work
mice [11] = settings: hot-plate test, s.c.; cited from earlier work
human µOR [12] = target: T1, human µOR; settings: cited from earlier work
mice [13] = settings: s.c., cited from earlier work; for ED50 (95% CL): tail-flick, at 30 min (peak effect)
human κOR [14] = target: T3, human κOR; settings: cited from earlier work
mice [15] = assay: Rotarod assay in mice; format: in vivo; settings: 30 min after s.c. administration, doses equivalent to a 3- to 4-fold the antinociceptive ED50 dose

Compound | Ki ratio δOR/µOR (human µOR [1]) | Ki ratio κOR/µOR (human µOR [1]) | EC50 (human µOR [2]) | Emax (human µOR [2]) | EC50 (human δOR [3]) | Emax (human δOR [3]) | EC50 (human µOR [4]) | µOR % stim. (human µOR [4]) | ED50 (mice [5]) | Ki (human δOR [6]) | EC50 (human δOR [7]) | δOR % stim. (human δOR [7]) | EC50 (human κOR [8]) | κOR % stim. (human κOR [8]) | Ki (human κOR [9]) | Ki (human µOR [1]) | ED50 (95% CL) (mice [13]) | effect on motor coordination (rotarod performance) (mice [15]) | further results
CO[C@@]12CCC(=O)[C@]3(C)Oc4c(O)ccc5c4[C@@]31CCN(C)[C@@H]2C5 [14-MM (4), 14-methoxymetopon, reference compound] | 74 | 51 | 0.31 ± 0.07 nM | 93 ± 5% | 4.06 ± 0.89 nM | 99 ± 8% | 2.66 ± 0.58 nM | 99 ± 5% | 0.024 mg/kg | 18.6 ± 0.98 nM | 36.8 ± 12.4 nM | 100 ± 9% | 181 ± 9 nM | 68.9 ± 9.2% | 12.8 ± 1.5 nM |  |  |  | Ki (human µOR [1]; read-out: Ki µOR): 0.25 ± 0.04 nM
CO[C@@]12CCC(=O)[C@@H]3Oc4c(O)ccc5c4[C@@]31CCN(C)[C@@H]2C5 [14-OMO (3), 14-O-methyloxymorphone, reference compound] | 34 | 38 | 0.19 ± 0.14 nM | 90 ± 8% | 5.42 ± 0.93 nM | 98 ± 3% | 1.21 ± 0.48 nM | 95 ± 5% | 0.014 mg/kg | 9.08 ± 0.31 nM | 38.5 ± 6.9 nM | 102 ± 4% | 135 ± 29 nM | 65.9 ± 6.5% | 10.3 ± 1.8 nM | 0.27 ± 0.09 nM |  |  | 
Oc1ccc2c3c1O[C@H]1[C@@H](O)C=C[C@H]4[C@@H](C2)N(CCc2ccccc2)CC[C@@]341 [Compound 1a] | 98 | 374 | 2.87 ± 0.91 nM | 107 ± 5% | 315 ± 110 nM | 105 ± 8% |  |  |  | 24.5 ± 8.7 nM |  |  |  |  | 93.5 ± 2.9 nM | 0.25 ± 0.09 nM | 0.11 (0.027–0.40)^b mg/kg | did not affect the evoked locomotor activity of mice | fold increased affinity at the human µOR vs. N-methyl parent (human µOR [1]): ca. 13 fold; fold enhanced µOR agonist potency vs. N-methyl parent (human µOR [2]): 4- to 5 fold; δOR % stim. (human δOR [10]): 138 ± 17^b %; fold more effective than morphine (antinociception) (mice [11]): 22 fold; fold increase in µOR agonist potency vs. N-methyl parent (human µOR [12]): 2- to 3 fold; µOR % stim. (human µOR [12]): 113 ± 8^b %; fold higher antinociceptive potency vs. N-methyl parent (mice [13]; tail-flick test): 28 fold; κOR % stim. (human κOR [14]): 19 ± 2^b*** %
O=C1CC[C@@]2(O)[C@H]3Cc4ccc(O)c5c4[C@@]2(CCN3CCc2ccccc2)[C@H]1O5 [Compound 2a] |  |  |  |  |  |  |  |  |  |  |  |  |  |  |  |  | 0.15 (0.058–0.40)^b mg/kg | did not affect the evoked locomotor activity of mice | 
CO[C@@]12CCC(=O)[C@@H]3Oc4c(O)ccc5c4[C@@]31CCN(CCc1ccccc1)[C@@H]2C5 [Compound 3a, 4,5α-Epoxy-3-hydroxy-14-methoxy-N-phenethylmorphinan-6-one] | 9.5 | 83 | 0.078 ± 0.004 nM | 88 ± 12% | 0.6 ± 0.07 nM | 93 ± 2% | 1.26 ± 0.63 nM | 98 ± 10% | 0.014 mg/kg | 1.81 ± 0.68 nM | 9.34 ± 0.6 nM | 107 ± 5% | 144 ± 9 nM | 35.4 ± 7.5 % | 15.8 ± 8.8 nM | 0.19 ± 0.02 nM |  | lack of the mixed µ/δOR agonists 3a and 4a to induce motor dysfunction | melting point: 180 to 182 °C; fold higher δOR agonist potency vs. N-methyl counterpart (human δOR [7]): 4 fold
CO[C@@]12CCC(=O)[C@]3(C)Oc4c(O)ccc5c4[C@@]31CCN(CCc1ccccc1)[C@@H]2C5 [Compound 4a, 4,5α-Epoxy-3-hydroxy-14-methoxy-5-methyl-N-phenethylmorphinan-6-one] | 6.0 | 147 | 0.15 ± 0.07 nM | 98 ± 12% | 0.55 ± 0.16 nM | 96 ± 4% | 1.86 ± 0.84 nM | 102 ± 13% | 0.024 mg/kg | 1.45 ± 0.31 nM | 9.54 ± 2.33 nM | 103 ± 2% | 334 ± 114 nM | 51.3 ± 10.4% | 35.3 ± 5.5 nM | 0.24 ± 0.03 nM |  | lack of the mixed µ/δOR agonists 3a and 4a to induce motor dysfunction | melting point: 179 to 180 °C; fold higher δOR agonist potency vs. N-methyl counterpart (human δOR [7]): 4 fold; fold decrease in κOR affinity vs. N-methyl parent (human κOR [9]): ca. 3 fold
CN1CC[C@]23c4c5ccc(O)c4O[C@H]2[C@@H](O)C=C[C@H]3[C@H]1C5 [Morphine (1), Morphine, reference compound] |  |  |  |  |  |  |  |  |  |  |  |  |  |  |  |  |  | caused a significant deficit in rotarod performance | 
CN1CC[C@]23c4c5ccc(O)c4O[C@H]2C(=O)CC[C@@]3(O)[C@H]1C5 [Oxymorphone (2), oxymorphone, reference compound] |  |  |  |  |  |  |  |  |  |  |  |  |  |  |  |  | 0.35 (0.16–0.77)^b mg/kg | caused a significant deficit in rotarod performance | 
